Test results from ChEMBL document CHEMBL1150087, “Structural Revision of Physalin H Isolated from Physalis angulata” (1995).
Activity calls are given as the source filed them. The rule behind the calls is not given here.

System: HeLa
Experiment: Cytotoxicity against human HeLa cells
Type: functional

C[C@@]12C[C@H]3OC(=O)[C@@H]1CO[C@@]14O[C@]5([C@H]2C1=O)[C@@](O)(CC[C@H]1[C@H]4C[C@@H](O)[C@@]2(O)CC=CC(=O)[C@]12C)C(=O)O[C@@]35C
ID50: inactive
